According to patent publication US20220280507A1, “USES OF 5-METHYLTETRAHYDROFOLATE AND ITS COMPOSITION” (Lianyungang Jinkang Hexin Pharmaceutical Co., Ltd., priority 2019, published 2022):
Where two headings read alike, the source gives them in different places.

Legend:
[1] = test system: brain tissue of rats; details: n=5
Method: Experiment 11 Effects of Drinking and 5-Methyltetrahydrofolate on the Concentrations of Formaldehyde and Formate in the Brain of Rats
The concentrations of formaldehyde and formate, as well as those of serotonin and dopamine in brain tissue of rats were detected at this time. SPF-grade female SD rats, fasted overnight, were divided into 4 groups.
(1) Ethanol group, with intragastric administration of ethanol at a dose of 1 g/kg respectively at 1, 2, 3 h, n=5; (2) control group, with intragastric administration of glucose at a dose of 1.6 g/kg (equivalent to alcohol calories) respectively at 1, 2, and 3 h, n=5; (3) 5-methyltetrahydrofolate group, with intragastric administration of 5-methyltetrahydrofolate calcium at a dose of 4 mg/kg at 0 h, followed by glucose at a dose of 1.6 g/kg (equivalent to alcohol calories) respectively at 1, 2, and 3 h, n=5; (4) 5-methyltetrahydrofolate alcohol group, with intragastric administration of 5-methyltetrahydrofolate calcium at a dose of 4 mg/kg at 0 h, followed by ethanol at a dose of 1 g/kg respectively at 1, 2, and 3 h, n=5.
Gas chromatography was used to detect methanol and ethanol concentrations in blood of rats, and HPLC was used to detect formaldehyde concentration in brain tissue. 0.1 g of brain tissue was taken and 0.5 ml of SDN lysate was added to make homogenate, then 0.5 ml of trifluoroacetic acid was added. The sample was centrifuged at 4° C., 0.4 ml of supernatant was collected, 0.1 ml DNPH (1 g/L) was added, mixed and incubated in 60° C. water bath for 30 min, centrifuged at 4° C., and supernatant was collected to detect formaldehyde concentration. Fluorescence spectrometry was used to detect formate concentration in brain. Serotonin and dopamine enzyme-linked immunosorbent reagent was used to detect neurotransmitters in brain in strict accordance with the instructions.

[2] = test system: alcohol drinking rats; experiment: Disappearance and recovery of righting reflex of alcohol drinking rats; type: in vivo, SD rats; details: 30 min before Erguotou 9 ml·Kg−1, n=6
Method: Experiment 1 Effect of 5-methyltetrahydrofolate on disappearance and recovery of righting reflex of alcohol drinking rats.
30 SPF-grade SD rats were chosen in half male and half female, and divided into 5 groups with 6 rats in each group, including normal group, model group, positive drug group (Weihe Liver Protectant), 5-methyltetrahydrofolate administration group (4 mg·Kg−1 medium dose group, 8 mg·Kg−1 high dose group, respectively). After fasting for 12 h, the administration group was given Weihe Liver Protectant at 50 mg·kg−1, 5-methyltetrahydrofolate (Jinkang Hexin product) at 4 mg·Kg−1, 5-methyltetrahydrofolate (Jinkang Hexin product) at 8 mg·Kg−1, respectively. […] The intoxication in rats depends on righting reflex disappearing, that is, cover the head of the rat with gauze, and gently place the rat back down in the animal cage. […] The disappearance time and recovery time of the righting reflex in rats after drinking were recorded.

[3] = test system: IL-6; experiment: LPS-induced inflammatory response in astrocytes, IL-6 release (ELISA); type: cell-based, Kunming mice; details: culture supernatant, LPS 1 μg·ml-1 + substance 10 μg·ml-1, 24 h, n=6
Description: Experiment 9 Inhibition of 5-Methyltetrahydrofolate and Curcumin on LPS-Induced Inflammatory Response in Astrocytes
The cerebral cortex of Kunming mice at 1˜2 d was taken out under aseptic conditions, washed 3 times with cold PBS after removing residual meninges and blood vessels, prepared into single cell suspension by blowing, centrifuged, the supernatant was discarded, and the precipitant was resuspended in AST basic medium (high-sugar DMEM containing 10% FBS). The suspension was inoculated into a culture flask coated with poly-L-lysine (0.1 mg/ml), and cultured in a CO2 incubator. After 24 h, tissue debris and non-adherent cells were removed by replacing the medium. Afterwards, the medium was replaced every 3 days until the cells reached 80% confluence, then the flask was placed on a constant temperature rotary shaker, where the suspension was centrifuged at 180 r/min, 37° C. for 18 h to remove oligodendrocytes and microglia from the upper layer. Then trypsin digestion was used for subculture. […]
LPS (1 μg·ml-1), LPS (1 μg·ml-1)+curcumin (10 μg·ml-1), LPS (1 μg·ml-1)+5-MTHF-Ca (10 μg·ml-1); experimental group: LPS (1 μg·ml-1)+curcumin (5 μg·ml-1)+5-MTHF-Ca (5 μg·ml-1). After 24 h, the culture supernatant was collected, and the cytokines IL-6, IL-1β and TNF-α were detected by ELISA.

[4] = test system: hyperlipemia rats; experiment: Hyperlipemia rats (high-fat diet), body mass, liver mass, liver index, NASH pathology; type: in vivo, SD rats; details: for Body mass / Liver index / Liver mass: 8 cases; for Pathological state (NASH): of 8 cases
Method: Experiment 5 Effect of 5-Methyltetrahydrofolate Calcium on Hyperlipemia Rats
7 weeks later, one rat in the control group and one rat in the model group were sacrificed for liver tissue section to check fatty degeneration of hepatocytes (see Table 7) to confirm whether modeling was successful. The remaining 40 modeling rats were randomly divided into low-dose (1 mg·Kg−1) group, medium-dose (2 mg·Kg−1) group, high-dose (4 mg·Kg−1) group, positive drug group, and model group.
Bicyclol (place of origin: Beijing Xiehe Pharmaceutical Factory, specification: 25 mg/tablet, batch number: H20040467) was used as a positive drug.
After successful modeling, rats were administered drugs with dosages as prescribed for 60 consecutive days, continued to be fed with high-fat diet, and dissected on the 61st day. Liver was harvested and weighed, liver index was calculated, right lobe tissue was taken to prepare frozen sections, and fat staining was performed with Sudan III for pathological scoring according to guidelines for diagnosis and treatment of NAFLD. Another liver tissue was taken to prepare homogenate, and total cholesterol (TC), triglyceride (TG), malondialdehyde (MDA), and superoxide dismutase (SOD) in serum were detected.

[5] = 5-methyltetrahydrofolate calcium 4 mg/kg ig at 0 h + ethanol 1 g/kg at 1, 2, 3 h, 24 h after drinking
[6] = 5-methyltetrahydrofolate calcium 4 mg/kg ig at 0 h + glucose 1.6 g/kg at 1, 2, 3 h, 24 h

Molecule: CN1c2c([nH]c(N)nc2=O)NCC1CNc1ccc(C(=O)N[C@@H](CCC(=O)O)C(=O)O)cc1 (stereo partly drawn) [5-methyltetrahydrofolate, N-[4-[[(2-amino-1,4,5,6,7,8-hexahydro-4-oxo-5-methyl-(6S), -(6R), and (6R,S)-pteridyl)methyl)amino)toluoyl-glutamic acid]
- 5-hydroxytryptamine in brain tissue [1, 5]: 0.10 ± 0.1 µg/L
- Dopamine in brain tissue [1, 5]: 27 ± 4 ng/L
- Formaldehyde in brain tissue [1, 5]: 1.14 ± 0.31 mg/L
- Formate in brain tissue [1, 5]: 5.5 ± 0.4 mg/L
- 5-hydroxytryptamine in brain tissue [1, 6]: 0.12 ± 0.04 µg/L
- Dopamine in brain tissue [1, 6]: 35 ± 3 ng/L
- Formaldehyde in brain tissue [1, 6]: 0.39 ± 0.11 mg/L
- Formate in brain tissue [1, 6]: 2.1 ± 0.2 mg/L
- Disappearance time (righting reflex) ([2]; 4 mg·Kg−1 (medium)): 30.1 ± 14.4 min
- Recovery time (righting reflex) ([2]; 4 mg·Kg−1 (medium)): 78.5 ± 14.5 min
- Disappearance time (righting reflex) ([2]; 8 mg·Kg−1 (high)): 42.3 ± 15.6 min
- Recovery time (righting reflex) ([2]; 8 mg·Kg−1 (high)): 64.1 ± 14.5 min

Molecule: 5-methyltetrahydrofolate calcium
- IL-6 [3]: 993.24 ± 52.05 pg/mL
- Body mass ([4]; high dose 4 mg·Kg−1, 60 d): 472.49 ± 37.8 g
- Liver index ([4]; high dose 4 mg·Kg−1, 60 d): 2.3 ± 0.5
- Liver mass ([4]; high dose 4 mg·Kg−1, 60 d): 10.9 ± 2.5 g
- Pathological state (NASH) ([4]; high dose 4 mg·Kg−1, 60 d): 0 case
- Body mass ([4]; low dose 1 mg·Kg−1, 60 d): 445.89 ± 39.0 g
- Liver index ([4]; low dose 1 mg·Kg−1, 60 d): 3.4 ± 0.3
- Liver mass ([4]; low dose 1 mg·Kg−1, 60 d): 15.3 ± 3.5 g
- Pathological state (NASH) ([4]; low dose 1 mg·Kg−1, 60 d): 1 case
- Body mass ([4]; medium dose 2 mg·Kg−1, 60 d): 452.93 ± 37.5 g
- Liver index ([4]; medium dose 2 mg·Kg−1, 60 d): 2.6 ± 0.2
- Liver mass ([4]; medium dose 2 mg·Kg−1, 60 d): 11.6 ± 2.9 g
- Pathological state (NASH) ([4]; medium dose 2 mg·Kg−1, 60 d): 0 case
